Measurements as given in US20190142721A1, “COMPOSITION CONTAINING SUBSTANCE FOR REGULATING EXPRESSON OF ABH ANTIGENS” (AMOREPACIFIC CORPORATION, priority 2014, published 2019).
Each block holds one molecule with its values, some of them ahead of it.

Tests used:
[1] = tested on: B antigen (ABH antigen); assay: Effect of increasing the expression of B antigen in HaCaT cell line (western blot); type: cell-based; settings: HaCaT cells, 2 μg/ml, 48 hours; for expression of B type antigen: western blot, FIG. 2; for expression of ABH antigen: data not shown
Procedure: The effect of various kinds of compounds on the expression of ABH antigen was examined. For this purpose, HaCaT cells (provided by Prof. Dr. N E Fusenig, DKFZ Heidelberg, Germany) were cultured in 10% FBS-DMEM for 24 hours in a 35 mm dish and then cultured in 0% FBS-DMEM for 24 hours to make to a starvation state.
Again, while replacing the medium with 0% FBS-DMEM, various kinds of compounds as test substances were treated with HaCaT cells at a concentration of 2 μg/ml, respectively, and cultured for 48 hours. At this time, for comparison, the control group was treated with DMSO at the same concentration as the sample. […] In case where these three compounds were treated, proteins were extracted from the cells, the cell lysate was loaded in the same amount, and then the expression of type B antigen was examined by western blot. Alpha-tubulin protein was used as a control group.

[2] = tested on: procollagen type(I); assay: Promotion of collagen biosynthesis in fibroblasts (procollagen type(I) ELISA); type: cell-based; settings: 2 μg/ml, 24 hours, untreated group as 100
Procedure: The collagen biosynthesis promoting effect of 1,3-dicaffeoylquinic acid, 1,5-dicaffeoylquinic acid and amentoflavone used in the present invention was measured in comparison with TGF-β.
First, 1×10^5 cells of fibroblasts were seeded in each well of a 24-well plate and cultured until they grew to about 90%. This was cultured in a serum-free DMEM medium for 24 hours and then treated with 2 μg/ml of 1,3-dicaffeoylquinic acid, 1,5-dicaffeoylquinic acid, amentoflavone and TGF-β, respectively, and cultured for 24 hours in a CO2 incubator. These supernatant fluids were removed and the procollagen type(I) ELISA kit was used to observe whether procollagen was increased or decreased. The results are shown in Table 6, and the collagen synthesis ability was compared with the untreated group as 100.

[3] = tested on: reactive oxygen species (ROS); assay: Inhibition of formation of reactive oxygen species in UVB-exposed keratinocytes (DCF-DA fluorescence); type: cell-based, human; settings: 2 μg/ml; for ROS, ratio to the ROS of the control group, 0 hr: 0 hr after exposure to 30 mJ/cm^2 of UVB, UVB + untreated 100; for ROS, ratio to the ROS of the control group, 2 hrs: 2 hrs after exposure to 30 mJ/cm^2 of UVB, UVB + untreated 325, untreated 244; for ROS, ratio to the ROS of the control group, 3 hrs: 3 hrs after exposure to 30 mJ/cm^2 of UVB, UVB + untreated 381, untreated 287
Procedure: 5×10^4 cells of Keratinocytes isolated from the human epidermal tissue were put in each well of a 24-well plate and immobilized for 24 hours. After the culture medium was removed, 100 μl of phosphate buffered saline (PBS) solution was added to each well. The keratinocytes were exposed to 30 mJ/cm^2 of ultraviolet radiation under an ultraviolet B (UV B) lamp (Model: F15T8, UV B 15 W, Sankyo Denki Co., Ltd., Japan). Each well was removed of the PBS solution and then supplied with 200 μl1 of the keratinocyte culture medium. The well was treated with 2 μg/ml of 1,3-dicaffeoylquinic acid, 1,5-dicaffeoylquinic acid and amentoflavone as the test substances, respectively. Then, the quantity of the reactive oxygen species (ROS) increased by the UV stimulation was determined at defined time intervals. At this time, for comparison, the quantity of reactive oxygen species was also measured for those not treated with test substance (untreated) and not stimulated with ultraviolet rays and those subjected to ultraviolet stimulation without treatment of the test substance. The quantity of ROS was quantified by referring to Tan's method for measuring the fluorescence of dichlorofluorescin diacetate (DCF-DA) oxidized by ROS (Tan et al., 1998, J. Cell Biol. Vol. 141, pp 1423-1432).

[4] = target: T1, 5α-reductase (Homo sapiens, UniProt P31213); assay: Inhibitory effect on 5α-reductase activity: conversion of [14C]testosterone to [14C]dihydrotestosterone in HEK 293-5α R2 cells; type: cell-based; settings: for Inhibition rate (%) / Conversion rate (%): 2 μg/ml, 2 hours, HEK 293-5α R2 cells; for Inhibition rate (%): relative to conversion rate of control group; for Conversion rate (%): radioactivity at DHT region/total radioactivity, control group 48
T1 construct: 3×FLAG; expressed in transfected cells; host or cells: HEK 293
T1 sequence (P31213 1-254): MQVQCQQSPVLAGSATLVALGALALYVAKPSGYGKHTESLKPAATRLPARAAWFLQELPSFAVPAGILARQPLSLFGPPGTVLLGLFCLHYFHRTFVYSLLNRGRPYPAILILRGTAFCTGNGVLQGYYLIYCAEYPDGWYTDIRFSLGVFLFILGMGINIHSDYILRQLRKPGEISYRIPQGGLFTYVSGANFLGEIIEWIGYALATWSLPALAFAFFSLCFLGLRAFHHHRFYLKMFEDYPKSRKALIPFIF
Procedure: In order to evaluate the inhibitory effect on the activity of 5α-reductase, the conversion rate from [^14C] testosterone to [^14C] dihydrotestosterone in HEK 293-5α R2 cells was measured. HEK 293 cells were transfected with p3×FLAG-CMV-5α R2, and the transfected HEK 293 cells (HEK 293-5α R2 cells) were seeded in a 24-well plate, 2.5×10^5 cells per well (Park et al., 2003, JDS. Vol. 31, pp 191-98). The next day, the used culture medium was replaced with a new culture medium containing an enzyme substrate and an inhibitor. The substrate of the culture medium used was 0.05 μCi [^14C]testosterone (Amersham Pharmacia Biotech, UK). […] At this time, for comparison, the negative control used was the group not containing any of the above test substances, while the positive control used was the group in which finasteride was added to the medium at 2 μg/ml and cultured under the same conditions. Subsequently, the culture medium was collected to extract estosterone with 800 μl of ethylacetate. The supernatant organic solvent phase was isolated and dried. The residue was dissolved in 50 μl of ethylacetate and developed on silica plastic sheet kieselgel 60 F254 using an ethylacetate-hexane (1:1) as a developing solvent. The plastic sheet was dried out in the air and measured in regards to the abundance of isotope using a BAS system. The dry plastic sheet together with an X-ray film was put in a bath cassette. After one week, the amount of isotope of testosterone and dihydrotestosterone remaining on the film was measured.

[5] = tested on: PGE-2; assay: Decrease in expression of skin inflammatory factor PGE-2 in UVB-exposed keratinocytes (ELISA); type: cell-based, human; settings: 2 μg/ml, 16 hours, keratinocytes after UVB exposure
Procedure: In order to measure the effect of suppressing the expression of PGE-2 which is a skin inflammatory factor of 1,3-dicaffeoylquinic acid, 1,5-dicaffeoylquinic acid and amentoflavone of the present invention, ELISA (Enzyme Linked ImmunoSorbent Assay) was performed (S E Dunsmore, et al., J Biol Chem, 271: 24576-24582, 1996).
5×10^4 cells of keratinocytes isolated from human epidermal tissue were put in each well of a 24-well plate and immobilized for 24 hours. The culture medium was replaced with a medium not containing FBS and treated with aspirin to remove the activity of prostaglandin biosynthetic enzyme (prostaglandin H2 synthetase, or cyclooxygenase). Two hours after aspirin treatment, each well containing keratinocytes was washed twice with PBS to which 100 μl of PBS was added to each well. The keratinocytes were exposed to […] of ultraviolet radiation under an ultraviolet B (UV B) lamp (Model: F15T8, UV B15W, Sankyo Dennki, Japan). Each well was removed of PBS and supplied with 250 ul of the keratinocyte growth media (Clonetics BioWhittacker, MD, USA).
Here, the substances 1,3-dicaffeoylquinic acid, 1,5-dicaffeoylquinic acid and amentoflavone were treated at a dose of 2 μg/ml, followed by culturing for 16 hours. By taking an appropriate amount of culture supernatant and quantifying PGE-2 biosynthesized for 16 hours, the prostaglandin inhibitory effects of 1,3-dicaffeoylquinic acid, 1,5-dicaffeoylquinic acid and amentoflavone was evaluated. The expression inhibitory effect of PGE-2 was calculated by the following mathematical formula 1, and the results are shown in Table 4 below.
Expression inhibition rate of PGE-2(%)=(A−B)/A*100 [Mathematical Formula 1]
A: Absorbance of well to which test substance was not added
B: Absorbance of the well to which test substance was added

[6] = tested on: skin pore size; assay: Effect of reducing skin pores in rhino mice; type: in vivo; settings: 0.5 ml of 1% solution applied to rhino mice for 1 week; control group (solvent) 65
Procedure: At this time, for comparison, only 0.5 ml of solvent was applied to one group. The substances were treated for 1 week and the back part was biopsied 24 hours after the last treatment. The epidermis was separated, immersed in 0.5% acetic acid, fixed in 10% formalin and cut vertically at […]. After staining with hematoxylin and eosin, the skin pore size was measured using a mechanical eyepiece micrometer.

SMILES: O=C(/C=C/c1ccc(O)c(O)c1)OC1CC(OC(=O)/C=C/c2ccc(O)c(O)c2)(C(=O)O)CC(O)C1O (centres unmarked) [1,3-dicaffeoylquinic acid]
- expression of B type antigen [1]: increasing the expression of B type antigen
- expression of ABH antigen [1]: significantly increase the expression of ABH antigen
- Collagen synthesis ability (%) [2]: 142.1 ± 13.1%
- ROS, ratio to the ROS of the control group, 0 hr [3]: 100
- ROS, ratio to the ROS of the control group, 2 hrs [3]: 277
- ROS, ratio to the ROS of the control group, 3 hrs [3]: 319
- Inhibition rate (%) [4]: 38%
- Conversion rate (%) [4]: 30%
- PGE-2 expression inhibition rate(%) [5]: 28.1%
- Skin Pore size (µm) [6]: 53 µm

SMILES: O=C(/C=C/c1ccc(O)c(O)c1)O[C@@H]1C[C@](OC(=O)/C=C/c2ccc(O)c(O)c2)(C(=O)O)C[C@@H](O)[C@H]1O [1,5-dicaffeoylquinic acid]
- expression of B type antigen [1]: increasing the expression of B type antigen
- expression of ABH antigen [1]: significantly increase the expression of ABH antigen
- Collagen synthesis ability (%) [2]: 144.2 ± 11.0%
- ROS, ratio to the ROS of the control group, 0 hr [3]: 100
- ROS, ratio to the ROS of the control group, 2 hrs [3]: 280
- ROS, ratio to the ROS of the control group, 3 hrs [3]: 315
- Inhibition rate (%) [4]: 38%
- Conversion rate (%) [4]: 30%
- PGE-2 expression inhibition rate(%) [5]: 32.5%
- Skin Pore size (µm) [6]: 54 µm

SMILES: O=C(O[C@@H]1Cc2c(O)cc(O)cc2O[C@@H]1c1cc(O)c(O)c(O)c1)c1cc(O)c(O)c(O)c1 [EGCG, reference compound]
- Skin Pore size (µm) [6]: 60 µm

- Conversion rate (%) [4]: 27%
SMILES: CC(C)(C)NC(=O)[C@H]1CC[C@H]2[C@@H]3CC[C@H]4NC(=O)C=C[C@]4(C)[C@H]3CC[C@]12C [Finasteride, finasteride, reference compound]

SMILES: O=c1cc(-c2ccc(O)c(-c3c(O)cc(O)c4c(=O)cc(-c5ccc(O)cc5)oc34)c2)oc2cc(O)cc(O)c12 [amentoflavone]
- expression of B type antigen [1]: increasing the expression of B type antigen
- expression of ABH antigen [1]: significantly increase the expression of ABH antigen
- Collagen synthesis ability (%) [2]: 147.7 ± 15.8%
- ROS, ratio to the ROS of the control group, 0 hr [3]: 100
- ROS, ratio to the ROS of the control group, 2 hrs [3]: 288
- ROS, ratio to the ROS of the control group, 3 hrs [3]: 320
- inhibition at 2 µg/mL ([4]; HEK2935, read-out: Inhibition rate (%)): 33%
- Conversion rate (%) [4]: 32%
- PGE-2 expression inhibition rate(%) [5]: 30.9%
- Skin Pore size (µm) [6]: 50 µm
